What is called IC50 is the midpoint of a concentration-inhibition curve.

One test concerns the target Human Factor XIa (Homo sapiens, UniProt P03951). Briefly: Inhibition of human coagulation factor XIa by absorptiometry (substrate S-2366). The format is biochemical. The conditions noted are these: 37° C., 20 min incubation, absorbance 405 nm; read-out: hFXIa IC50.
The next test deals with T1, CYP2B6 (Homo sapiens, UniProt P20813).
T1 construct: Liver microsomes (150-donor, Corning, Cat. 452117; Lot; 38292), NADPH; tissue Corning 452117; host or cells: liver microsomes, 150-donor pool
T1 sequence (P20813 1-491): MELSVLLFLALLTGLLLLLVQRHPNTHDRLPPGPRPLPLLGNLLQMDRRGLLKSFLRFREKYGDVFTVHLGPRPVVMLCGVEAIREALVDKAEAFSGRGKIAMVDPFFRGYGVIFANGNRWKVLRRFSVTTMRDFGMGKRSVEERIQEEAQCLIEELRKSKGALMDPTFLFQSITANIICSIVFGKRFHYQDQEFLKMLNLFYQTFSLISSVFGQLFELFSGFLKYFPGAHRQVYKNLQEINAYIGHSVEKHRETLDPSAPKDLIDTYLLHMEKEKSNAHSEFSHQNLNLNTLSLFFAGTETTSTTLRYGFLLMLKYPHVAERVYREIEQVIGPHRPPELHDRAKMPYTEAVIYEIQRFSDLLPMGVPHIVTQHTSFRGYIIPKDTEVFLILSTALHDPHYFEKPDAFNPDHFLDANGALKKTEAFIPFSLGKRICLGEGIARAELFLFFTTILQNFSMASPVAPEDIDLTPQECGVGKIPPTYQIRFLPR
Briefly: CYP enzyme inhibition in liver microsomes: CYP2B6. The conditions noted are these: 0.2 mg/mL liver microsomes. The format is in vitro ADME. The method, then:
Example 55: Investigation of CYP Enzyme Inhibition by the Compounds of the Present Invention Liver microsomes (150-donor, Corning, Cat. 452117; Lot. 38292), NADPH. A 0.2 mg/mL microsome system was prepared, each test substance and substrate were added, and the final concentration of the test substance was 50 μM. After pre-incubating for 8 min, 10 mM NADPH was added to start the reaction, and the final concentration of NADPH was 1 mM. After a period of incubation, an internal standard such as methanol was added to stop the reaction. The amount of substrate metabolites generated in each reaction well was detected. Data processing: Taking the metabolite generation in the blank well as 100%, the reduction of metabolite generation in each well of the test substance was calculated, and the inhibition rate was calculated.

In a further test the target is T2, CYP3A4 (Homo sapiens, UniProt P08684).
T2 construct: Liver microsomes (150-donor, Corning, Cat. 452117; Lot; 38292), NADPH; tissue Corning 452117; host or cells: liver microsomes, 150-donor pool
In words: CYP enzyme inhibition in liver microsomes: CYP3A4. The conditions noted are these: 0.2 mg/mL liver microsomes. The format is in vitro ADME. As for the experimental part:
Example 55: Investigation of CYP Enzyme Inhibition by the Compounds of the Present Invention Liver microsomes (150-donor, Corning, Cat. 452117; Lot. 38292), NADPH. […] After pre-incubating for 8 min, 10 mM NADPH was added to start the reaction, and the final concentration of NADPH was 1 mM. After a period of incubation, an internal standard such as methanol was added to stop the reaction. The amount of substrate metabolites generated in each reaction well was detected. […]

Another test concerns the target T3, hFIIa (Homo sapiens, UniProt P00734).
T3 construct: purchased HT5146L
Briefly: Selectivity to coagulation factors: hFIIa (substrate S-2238). Format: biochemical. The method, then:
(§1) Example 52: Investigation of the Selectivity of the Compounds of the Present Invention to Coagulation Factors
(§2) Enzyme: hFXa: Human Factor Xa: 71nkat. hFIIa: HT5146L. hFVIIa: Human Factor VIIa: hFVIIa 4591L. kallikrein: LOT180223.
(§3) 10 mM test compound dissolved in 100% DMSO was diluted with 100% DMSO to 1000, 200, 40, 8, 1.6 μM. 98 μL of enzyme solution was added to each well of a 96-well plate, while 98 μL of buffer was added to the blank wells. 2 μL of compounds of different concentrations were added, while the blank and control wells were added with DMSO instead. They were mixed with a shaker, and incubated at 37° C. for 20 min.
(§4) The concentrations of hFXa and S-2222™ were FXa (1:28) and 800 μmol/L, respectively. The concentrations of hFIIa and S-2238™ were hFIIa (0.06 U/ml) and 500 μmol/L, respectively. The concentrations of hFVIIa and S-2288™ were hFVIIa (80 nM) and 1600 μmol/L, respectively. The concentrations of kallikrein and substrate were kallikrein (20 nM) and 1600 μmol/L, respectively.
(§5) Finally, 100 μL substrate was added to each well, and its absorbance was measured at 405 nm.

The target in the next test is T4, Human Factor VIIa (Homo sapiens, UniProt P08709).
T4 construct: hFVIIa: Human Factor VIIa: hFVIIa 4591L; purchased hFVIIa 4591L
T4 sequence (P08709 213-466 limits assumed): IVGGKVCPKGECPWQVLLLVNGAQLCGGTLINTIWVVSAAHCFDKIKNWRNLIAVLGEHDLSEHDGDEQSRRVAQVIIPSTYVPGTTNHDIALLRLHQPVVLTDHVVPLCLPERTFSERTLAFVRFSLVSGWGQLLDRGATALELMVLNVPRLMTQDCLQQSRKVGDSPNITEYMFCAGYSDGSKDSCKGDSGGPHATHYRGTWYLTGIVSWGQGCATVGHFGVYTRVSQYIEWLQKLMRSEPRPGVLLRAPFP
T4 sequence (P08709 61-212 partner limits assumed): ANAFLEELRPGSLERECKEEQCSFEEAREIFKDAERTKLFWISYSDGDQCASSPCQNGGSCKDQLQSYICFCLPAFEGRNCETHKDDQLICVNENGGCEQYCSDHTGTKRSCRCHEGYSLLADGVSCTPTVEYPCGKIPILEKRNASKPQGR
In words: Selectivity to coagulation factors: hFVIIa (substrate S-2288). Format: biochemical. The method, then: as §1, §2, §3, §4, §5

Each structure is given as a SMILES string.

T2 sequence (P08684 whole entry): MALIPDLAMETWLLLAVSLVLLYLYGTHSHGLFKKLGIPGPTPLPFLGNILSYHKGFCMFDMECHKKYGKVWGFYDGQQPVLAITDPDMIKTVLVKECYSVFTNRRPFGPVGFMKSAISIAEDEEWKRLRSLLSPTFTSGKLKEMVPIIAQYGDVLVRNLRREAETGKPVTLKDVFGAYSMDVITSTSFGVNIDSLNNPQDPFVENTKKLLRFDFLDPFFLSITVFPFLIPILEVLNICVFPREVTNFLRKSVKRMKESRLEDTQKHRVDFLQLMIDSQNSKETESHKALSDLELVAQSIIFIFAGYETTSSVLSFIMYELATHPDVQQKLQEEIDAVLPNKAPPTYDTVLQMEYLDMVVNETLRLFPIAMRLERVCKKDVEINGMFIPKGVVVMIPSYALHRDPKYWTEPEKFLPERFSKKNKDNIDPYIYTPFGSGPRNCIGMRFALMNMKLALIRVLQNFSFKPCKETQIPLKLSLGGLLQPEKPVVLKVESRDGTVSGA
Sequence of Human Factor XIa (P03951 388-625 limits assumed): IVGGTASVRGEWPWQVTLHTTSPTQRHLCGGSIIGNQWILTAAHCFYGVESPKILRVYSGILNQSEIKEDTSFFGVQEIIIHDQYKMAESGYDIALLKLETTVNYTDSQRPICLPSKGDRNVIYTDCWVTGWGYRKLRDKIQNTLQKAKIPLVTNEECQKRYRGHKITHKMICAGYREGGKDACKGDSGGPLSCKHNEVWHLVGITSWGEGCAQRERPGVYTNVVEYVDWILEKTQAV
Sequence of Human Factor XIa (P03951 19-387 partner limits assumed): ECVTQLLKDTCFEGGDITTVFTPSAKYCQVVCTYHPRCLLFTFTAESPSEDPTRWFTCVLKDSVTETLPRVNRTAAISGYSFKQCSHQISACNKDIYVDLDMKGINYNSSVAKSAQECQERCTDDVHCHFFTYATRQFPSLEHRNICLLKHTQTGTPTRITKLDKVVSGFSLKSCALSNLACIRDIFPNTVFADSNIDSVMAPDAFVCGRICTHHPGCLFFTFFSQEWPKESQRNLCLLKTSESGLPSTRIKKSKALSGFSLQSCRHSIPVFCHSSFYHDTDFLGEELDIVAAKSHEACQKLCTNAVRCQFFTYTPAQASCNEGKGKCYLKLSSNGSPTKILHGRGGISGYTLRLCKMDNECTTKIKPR

Regarding `CCC(=O)c1ccc(Cl)cc1-c1cc(=O)n([C@@H](Cc2ccccc2)C(=O)Nc2ccc(C(=O)O)cc2)nc1OC` [Example 32], the IC50 on Human Factor XIa is 0.00165 µM; against CYP2B6, over 50 µM; at CYP3A4, over 50 µM; against hFIIa, over 100 µM; against Human Factor VIIa, over 100 µM.
As for `COc1nn([C@@H](Cc2ccccc2)C(=O)Nc2ccc(C(=O)O)cc2)c(=O)cc1-c1cc(Cl)ccc1C(C)=O` [Example 19, (S)-4-(2-(4-(2-acetyl-5-chlorophenyl)-3-methoxy-6-oxopyridazin-1(6H)-yl)-3-phenylpropanamido)benzoic acid], the IC50 on Human Factor XIa is 0.00761 µM; against CYP2B6 it was over 50 µM; against CYP3A4 it was over 50 µM; at hFIIa, over 100 µM; against Human Factor VIIa it was over 100 µM.
